The source of these data is patent US20120184548A1, “CARBOXYLIC ACID ARYL AMIDES” (priority 2011, published 2012).

Assay [1] deals with SW620 human colon cancer cells. In words: SW620 Cell Viability Assay (CellTiter-Glo). Format: cell-based. The conditions noted are these: SW-620, 96 h, 4 days incubation, read-out: Cellular EC50 SW620. As for the experimental part: 1. Cell Plate Preparation: SW620 human colon cancer cells (known to express DYRK1B), obtained from ATCC, were seeded into 96-well plates at […] in 50 μL of media. • Harvested the required number of cells (counts & viability determined by Guava Viacount). • Centrifuge cells to pellet and removed supernant. • Resuspended in growth media (50 μL/well) & pipetted thoroughly to break up clumps. • Setup for ˜100 wells/plate, therefore, VT=5 mL/plate @ 1.2×10^5 cells/mL. 1A. Some cells (S-) were allowed to attach for 24 hrs, serum starved for 48 hrs, and then followed with treatments of test compound.
Test Compound solution was prepared in regular corresponding media supplemented with serum
2. Test Compound Preparation: Test compounds were solubilized in either DMSO or media and prepared at various stock concentrations. • All compounds were incubated at 37° C. for 30 minutes and vortexed. • (5 mM stocks of test compound were prepared for non-soluble drugs)
3. Test Compound Plate Preparation:
• The 10 mM test compound stock was diluted to a concentration of 100× the final Cmax concentration. • Then the test compound stock is diluted 50-fold in media and/or second test compound for a final Cmax concentration in the test compound plate. • The Cmax in the test compound plate (2% DMSO) is 2-fold higher than the final Cmax in the cell plate (60 uL titrations were 1:3). 4. Viability Assay: This assay was performed as follows: • Transfer 50 μL of test compound solution per well from the test compound plate onto the cell plate prepared in Step #1. • Mix the plate with treated cells by pipetting up and down three times with 200 μL multi-channel pipet. • Incubate the cells in 5% CO2 incubator @ 37° C. for 4 days. • Run the CellTiter-Glo™ Luminescent Cell Viability Assay. The results of this assay, given as EC50 values, indicate the concentration of test compound that inhibits tumor cell proliferation by 50%.
Background: In ATP-based viability assays light output follows the ATP content of the culture.

Assay [2] has as its target T1, Human DYRK1B (Homo sapiens, UniProt Q9Y463).
T1 construct: purchased Invitrogen PR8350B (former PV4649)
The assay is described as follows: DYRK1B Kinase TR-FRET (IMAP-Tb) Assay. Format: biochemical. The note with it: TR-FRET; ATP 70 μM; 37° C. for 60 minutes; averages of multiple runs; read-out: Enzyme IC50 DYRK1B. A general note: TR-FRET usually uses a lanthanide donor and a delayed reading to cut background.

The target of assay [3] is T2, Human DYRK1A (Homo sapiens, UniProt Q13627).
T2 construct: purchased Invitrogen PV3997
The assay is described as follows: DYRK1A Kinase TR-FRET (IMAP-Tb) Assay. Format: biochemical. The note with it: TR-FRET; ATP 70 μM; 37° C. for 60 minutes; averages of multiple runs; read-out: Enzyme IC50 DYRK1A.

pEC50, pIC50: −log10 of the molar value.

T1 sequence (Q9Y463 whole entry): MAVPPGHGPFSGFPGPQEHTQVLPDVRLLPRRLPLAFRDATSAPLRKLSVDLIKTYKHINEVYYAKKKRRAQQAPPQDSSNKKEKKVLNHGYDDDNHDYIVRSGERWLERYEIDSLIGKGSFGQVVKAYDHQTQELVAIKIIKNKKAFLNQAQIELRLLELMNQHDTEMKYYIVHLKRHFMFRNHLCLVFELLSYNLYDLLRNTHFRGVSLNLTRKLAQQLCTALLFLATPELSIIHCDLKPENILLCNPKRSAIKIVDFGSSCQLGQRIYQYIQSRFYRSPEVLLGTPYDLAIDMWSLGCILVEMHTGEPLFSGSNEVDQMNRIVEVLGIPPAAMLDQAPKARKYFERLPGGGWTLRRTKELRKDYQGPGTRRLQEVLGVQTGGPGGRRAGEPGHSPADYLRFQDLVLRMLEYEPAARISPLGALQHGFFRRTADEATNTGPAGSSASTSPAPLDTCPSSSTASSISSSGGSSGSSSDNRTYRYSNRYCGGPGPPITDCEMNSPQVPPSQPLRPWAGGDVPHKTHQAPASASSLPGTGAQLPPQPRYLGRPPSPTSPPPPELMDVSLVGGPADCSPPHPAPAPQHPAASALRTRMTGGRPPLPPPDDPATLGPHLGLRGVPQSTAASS

Consider `COCCOc1cc2cc(C(=O)Nc3cc(C(=O)NCc4cccc(Cl)c4)ccc3Cl)c(=O)[nH]c2cc1OC` [Example 55, N-(2-Chloro-5-(3-chlorobenzylcarbamoyl)phenyl)-7-methoxy-6-(2-methoxyethoxy)-2-oxo-1,2-dihydroquinoline-3-carboxamide], for which the pEC50 (as a rule, −log10 of the EC50, conventionally taken in molar units) in assay [1] is 6.89. Also, the pIC50 – broadly, the negative decadic logarithm of the IC50, by convention in mol/L – is 7.43 in assay [2] and 7.31 in assay [3].

Consider `COCCOc1cc2cc(C(=O)Nc3cc(C(=O)NC(CCN)c4ccccc4)ccc3Cl)c(=O)[nH]c2cc1OC` (stereo not drawn) [Example 61, N-(5-(3-Amino-1-phenylpropylcarbamoyl)-2-chlorophenyl)-7-methoxy-6-(2-methoxyethoxy)-2-oxo-1,2-dihydroquinoline-3-carboxamide], for which, in assay [1], the pEC50 is 6.33. Further, the pIC50 in assay [2] was 7.94; in assay [3], 7.80.

Regarding `COc1cc2cc(C(=O)Nc3cc(C(=O)NC(CCN)c4ccccc4)ccc3C)c(=O)[nH]c2cc1OC` (stereo in doubt) [Example 47, 6,7-Dimethoxy-2-oxo-1,2-dihydro-quinoline-3-carboxylic acid [5-((R)-3-amino-1-phenyl-propylcarbamoyl)-2-methyl-phenyl]-amide], in assay [1], the pEC50 was < 5.52. Further, the pIC50 in assay [2] is 7.85; in assay [3] it was 7.07.

Consider `COc1cc2cc(C(=O)Nc3cc(C(=O)N[C@H](CO)c4ccccc4)ccc3C)c(=O)[nH]c2cc1OC` [Example 57, (S)-N-(5-(2-Hydroxy-1-phenylethylcarbamoyl)-2-methylphenyl)-6,7-dimethoxy-2-oxo-1,2-dihydroquinoline-3-carboxamide], for which the negative-log EC50 (pEC50) in assay [1] was 5.19. In addition, the pIC50 in assay [2] was 6.05; in assay [3], 6.73.
